According to ChEMBL document CHEMBL1201862, “PubChem BioAssay data set” (2004):
Active and inactive are the calls of the source.

How the values were obtained:
[1] = biological target: T1, G-protein coupled receptor 55 (Homo sapiens, UniProt Q9Y2T6); assay: SAR Analysis of Selective Antagonists of GPR55 using an Image-Based Assay - Set 4. [Related pubchem assays (depositor defined):AID2013, AID2026]; assay type: functional
Cannabinoid receptor 1 [2] = biological target: T2, Cannabinoid receptor 1 (Homo sapiens, UniProt P21554); assay: SAR analysis of agonists of the Cannabinoid Receptor 1 using an Image-Based Assay - Set 4. [Related pubchem assays (depositor defined):AID2013, AID2026]; assay type: functional
T2 sequence (P21554 whole entry): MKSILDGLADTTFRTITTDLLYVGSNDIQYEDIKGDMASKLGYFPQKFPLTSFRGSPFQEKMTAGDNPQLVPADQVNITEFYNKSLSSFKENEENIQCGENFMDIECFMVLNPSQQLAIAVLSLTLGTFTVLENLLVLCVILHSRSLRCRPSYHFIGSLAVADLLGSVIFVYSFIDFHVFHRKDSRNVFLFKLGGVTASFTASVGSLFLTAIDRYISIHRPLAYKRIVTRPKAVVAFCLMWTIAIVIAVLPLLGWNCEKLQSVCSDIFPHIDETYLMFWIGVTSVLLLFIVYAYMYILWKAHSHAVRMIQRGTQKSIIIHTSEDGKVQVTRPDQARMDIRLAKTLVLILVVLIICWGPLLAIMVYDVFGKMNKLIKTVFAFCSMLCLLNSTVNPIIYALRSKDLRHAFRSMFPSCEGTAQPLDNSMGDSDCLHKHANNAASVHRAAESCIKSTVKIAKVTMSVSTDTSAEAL

[3] = biological target: T3, G-protein coupled receptor 35 (Homo sapiens, UniProt Q9HC97); assay: SAR analysis of Agonists of the GPR35 Receptor using an Image-Based Assay - Set 4. [Related pubchem assays (depositor defined):AID2013, AID2026]; assay type: functional
T3 sequence (Q9HC97 whole entry): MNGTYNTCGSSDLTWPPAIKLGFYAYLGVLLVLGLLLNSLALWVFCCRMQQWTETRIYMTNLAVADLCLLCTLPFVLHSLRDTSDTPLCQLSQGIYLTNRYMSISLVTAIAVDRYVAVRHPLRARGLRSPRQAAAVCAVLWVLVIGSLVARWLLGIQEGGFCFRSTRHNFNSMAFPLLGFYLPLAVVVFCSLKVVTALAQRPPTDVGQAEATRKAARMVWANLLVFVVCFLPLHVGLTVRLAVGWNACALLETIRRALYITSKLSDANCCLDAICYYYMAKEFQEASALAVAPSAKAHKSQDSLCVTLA

Cannabinoid receptor 2 [4] = biological target: T4, Cannabinoid receptor 2 (Homo sapiens, UniProt P34972); assay: SAR analysis of antagonists of the Cannabinoid Receptor 2 using an Image-Based Assay - Set 3. [Related pubchem assays (depositor defined):AID2013, AID2026]; assay type: functional
T4 sequence (P34972 whole entry): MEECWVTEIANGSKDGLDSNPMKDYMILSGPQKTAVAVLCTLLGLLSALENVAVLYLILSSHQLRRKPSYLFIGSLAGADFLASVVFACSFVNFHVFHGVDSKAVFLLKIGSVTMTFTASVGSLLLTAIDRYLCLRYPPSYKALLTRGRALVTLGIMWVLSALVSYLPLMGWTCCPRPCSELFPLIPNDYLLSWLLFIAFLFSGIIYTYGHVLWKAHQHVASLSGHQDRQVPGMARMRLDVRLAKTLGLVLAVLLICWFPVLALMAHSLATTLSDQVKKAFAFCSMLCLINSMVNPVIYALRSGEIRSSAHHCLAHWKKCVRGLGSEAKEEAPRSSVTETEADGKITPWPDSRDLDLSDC

[5] = biological target: T3, G-protein coupled receptor 35; assay: SAR analysis of Antagonists of the GPR35 Receptor using an Image-Based Assay - Set 6. [Related pubchem assays (depositor defined):AID2013, AID2026]; assay type: functional
Cannabinoid receptor 1 [6] = biological target: T2, Cannabinoid receptor 1; assay: SAR analysis of antagonists of the Cannabinoid Receptor 1 using an Image-Based Assay - Set 4. [Related pubchem assays (depositor defined):AID2013, AID2026]; assay type: functional
Cannabinoid receptor 2 [7] = biological target: T4, Cannabinoid receptor 2; assay: SAR analysis of agonists of the Cannabinoid Receptor 2 using an Image-Based Assay - Set 3. [Related pubchem assays (depositor defined):AID2013, AID2026]; assay type: functional
Cannabinoid receptor 2 [8] = biological target: T4, Cannabinoid receptor 2; assay: SAR analysis of agonists of the Cannabinoid Receptor 2 using an Image-Based Assay - Set 2. [Related pubchem assays (depositor defined):AID1961, AID1965]; assay type: functional
Cannabinoid receptor 1 [9] = biological target: T2, Cannabinoid receptor 1; assay: SAR analysis of antagonists of the Cannabinoid Receptor 1 using an Image-Based Assay - Set 3. [Related pubchem assays (depositor defined):AID1961, AID1965]; assay type: functional
Cannabinoid receptor 2 [10] = biological target: T4, Cannabinoid receptor 2; assay: SAR analysis of antagonists of the Cannabinoid Receptor 2 using an Image-Based Assay - Set 2. [Related pubchem assays (depositor defined):AID1961, AID1965]; assay type: functional
[11] = biological target: T3, G-protein coupled receptor 35; assay: SAR analysis of Antagonists of the GPR35 Receptor using an Image-Based Assay - Set 4. [Related pubchem assays (depositor defined):[…]]; assay type: functional
[12] = biological target: T1, G-protein coupled receptor 55; assay: SAR analysis of selective Agonists of GPR55 using an Image-Based Assay - Set 2. [Related pubchem assays (depositor defined):AID1961, AID1965]; assay type: functional
Cannabinoid receptor 1 [13] = biological target: T2, Cannabinoid receptor 1; assay: SAR analysis of agonists of the Cannabinoid Receptor 1 using an Image-Based Assay - Set 3. [Related pubchem assays (depositor defined):AID1961, AID1965]; assay type: functional
[14] = biological target: T3, G-protein coupled receptor 35; assay: SAR analysis of Agonists of the GPR35 Receptor using an Image-Based Assay - Set 3. [Related pubchem assays (depositor defined):AID1961, AID1965]; assay type: functional
X-box-binding protein 1 = biological target: T5, X-box-binding protein 1 (Homo sapiens, UniProt P17861); assay type: functional, Cricetulus griseus;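 note: confirmatory dose-response counter-screen serving a CHOP assay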
T5 sequence (P17861 whole entry): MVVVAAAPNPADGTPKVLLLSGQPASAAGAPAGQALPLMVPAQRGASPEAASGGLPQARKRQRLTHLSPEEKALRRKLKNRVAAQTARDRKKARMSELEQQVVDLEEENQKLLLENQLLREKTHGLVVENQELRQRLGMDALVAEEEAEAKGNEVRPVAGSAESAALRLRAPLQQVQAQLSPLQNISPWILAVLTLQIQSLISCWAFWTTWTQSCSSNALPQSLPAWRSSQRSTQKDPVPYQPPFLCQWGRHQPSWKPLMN

[15] = biological target: DNA damage-inducible transcript 3 protein (Mus musculus, UniProt P35639); assay type: functional, Cricetulus griseus
DNA damage-inducible transcript 3 protein, sequence (P35639 whole entry): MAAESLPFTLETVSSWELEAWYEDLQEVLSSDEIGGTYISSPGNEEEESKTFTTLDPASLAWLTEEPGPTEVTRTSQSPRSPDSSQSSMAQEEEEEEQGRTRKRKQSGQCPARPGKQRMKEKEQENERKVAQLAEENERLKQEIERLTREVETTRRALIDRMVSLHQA

Mucolipin-3 = Mucolipin-3 (Homo sapiens, UniProt Q8TDD5); assay: Fluorescence counterscreen assay for […] agonists: dose response cell-based high-throughput screening assay to identify agonists of the transient receptor potential channel ML3 (TRPML3). [Related pubchem assays: 1424, 1448 ]; assay type: functional
Mucolipin-3, sequence (Q8TDD5 whole entry): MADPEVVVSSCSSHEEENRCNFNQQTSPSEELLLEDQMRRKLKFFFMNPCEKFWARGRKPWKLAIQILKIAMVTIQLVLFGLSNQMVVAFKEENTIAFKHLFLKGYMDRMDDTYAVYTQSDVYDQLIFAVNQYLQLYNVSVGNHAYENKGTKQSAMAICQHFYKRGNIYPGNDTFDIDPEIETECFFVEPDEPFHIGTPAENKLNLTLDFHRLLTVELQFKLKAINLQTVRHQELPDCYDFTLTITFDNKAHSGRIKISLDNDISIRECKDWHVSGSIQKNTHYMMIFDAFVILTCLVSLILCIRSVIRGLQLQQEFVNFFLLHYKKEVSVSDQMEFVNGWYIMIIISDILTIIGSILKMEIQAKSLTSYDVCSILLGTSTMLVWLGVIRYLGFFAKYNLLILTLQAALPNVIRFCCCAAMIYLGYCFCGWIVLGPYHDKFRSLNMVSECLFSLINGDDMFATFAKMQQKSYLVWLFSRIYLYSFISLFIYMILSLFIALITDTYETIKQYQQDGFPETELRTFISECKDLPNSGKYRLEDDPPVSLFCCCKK

Ion channel NompC = Ion channel NompC (Danio rerio, UniProt Q7T1G6); assay: Dose response cell-based high-throughput screening assay for agonists of the transient receptor potential channel N1 (TRPN1). [Related pubchem assays (depositor defined):AID1424, AID1448]; assay type: functional
Ion channel NompC, sequence (Q7T1G6 whole entry): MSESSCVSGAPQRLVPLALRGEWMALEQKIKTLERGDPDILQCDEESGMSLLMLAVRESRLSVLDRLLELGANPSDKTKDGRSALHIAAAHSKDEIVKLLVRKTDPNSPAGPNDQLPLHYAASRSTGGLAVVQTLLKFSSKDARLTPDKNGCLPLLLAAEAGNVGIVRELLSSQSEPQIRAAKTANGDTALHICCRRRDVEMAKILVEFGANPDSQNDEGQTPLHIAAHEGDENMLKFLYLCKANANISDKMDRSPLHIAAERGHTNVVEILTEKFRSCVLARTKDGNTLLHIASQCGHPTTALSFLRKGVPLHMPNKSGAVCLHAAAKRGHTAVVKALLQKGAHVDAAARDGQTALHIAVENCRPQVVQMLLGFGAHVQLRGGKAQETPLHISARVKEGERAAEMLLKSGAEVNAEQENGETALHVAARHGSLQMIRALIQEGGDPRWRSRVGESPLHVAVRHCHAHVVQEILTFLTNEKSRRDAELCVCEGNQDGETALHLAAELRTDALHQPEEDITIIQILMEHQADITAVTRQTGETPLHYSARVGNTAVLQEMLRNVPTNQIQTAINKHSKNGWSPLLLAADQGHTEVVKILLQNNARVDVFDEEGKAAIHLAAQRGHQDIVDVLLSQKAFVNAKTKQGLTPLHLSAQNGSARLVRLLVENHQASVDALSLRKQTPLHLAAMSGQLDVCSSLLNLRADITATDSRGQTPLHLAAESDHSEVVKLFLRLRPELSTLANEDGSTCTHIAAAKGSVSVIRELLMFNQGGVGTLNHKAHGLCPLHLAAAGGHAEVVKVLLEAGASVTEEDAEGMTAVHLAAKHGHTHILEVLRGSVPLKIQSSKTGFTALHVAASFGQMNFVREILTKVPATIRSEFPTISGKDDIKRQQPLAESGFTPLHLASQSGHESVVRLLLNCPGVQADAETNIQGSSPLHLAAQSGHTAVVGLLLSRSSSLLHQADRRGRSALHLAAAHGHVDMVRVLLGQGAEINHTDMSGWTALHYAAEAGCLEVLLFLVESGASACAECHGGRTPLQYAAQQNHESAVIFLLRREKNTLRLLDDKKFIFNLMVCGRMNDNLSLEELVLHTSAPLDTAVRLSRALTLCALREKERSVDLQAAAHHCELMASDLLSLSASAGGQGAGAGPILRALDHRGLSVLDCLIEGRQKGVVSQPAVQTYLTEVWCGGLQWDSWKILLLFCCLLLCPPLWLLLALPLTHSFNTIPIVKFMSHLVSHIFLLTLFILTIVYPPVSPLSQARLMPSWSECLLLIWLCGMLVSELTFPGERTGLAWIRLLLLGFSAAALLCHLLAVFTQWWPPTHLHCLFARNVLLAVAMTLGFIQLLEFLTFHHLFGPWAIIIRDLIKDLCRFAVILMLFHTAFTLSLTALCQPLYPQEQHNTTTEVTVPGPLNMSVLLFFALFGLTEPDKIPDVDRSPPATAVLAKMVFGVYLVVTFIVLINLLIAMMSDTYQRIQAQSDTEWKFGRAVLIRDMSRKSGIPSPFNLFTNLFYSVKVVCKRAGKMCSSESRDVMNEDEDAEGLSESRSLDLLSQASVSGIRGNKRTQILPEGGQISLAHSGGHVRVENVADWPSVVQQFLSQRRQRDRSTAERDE

BJ [16] = assay: cytotoxicity toward BJ-TERT-LT-ST fibroblasts, dose response, cell-based, RAS-independent, luminescence (AID 1935); assay type: functional; conditions: Homo sapiens;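 note: BJ fibroblasts immortalized with TERT plus LT and ST oncogenes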
[17] = Luminescence Cell-Based Dose Response HTS to Identify Activators of 5'UTR Stem-Loop Driven Prion Protein mRNA Translation in H4-C Neuroglioblastoma Cells. [Related pubchem assays: 1829 (Project Summary), 1814 (Primary HTS)]; assay type: functional
[18] = HEK293 cell cytotoxicity, dose response, cytotoxicity control, dry powder samples (AID 720567); assay type: functional, cell-based
cells = assay type: functional, cell-based
[19] = Luminescence Cell-Based Dose Response HTS to Identify Inhibitors of Luciferase Translation or Activity in H4-C Neuroglioblastoma Cells. [Related pubchem assays: 1813 (Primary HTS), 1827 (Project Summary)]; assay type: functional
[20] = inhibitors of SNCA 5'UTR-driven translation, confirmation, luminescence, H4 neuroglioblastoma cells, dose confirmation (AID 2454); assay type: functional, cell-based;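 note: H4 neuroglioblastoma cells carrying an alpha-synuclein 5'UTR luciferase reporter; potency for inhibition of the luciferase signal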
BJ [21] = assay: cells; assay type: functional, cell-based; conditions: Homo sapiens
[22] = luciferase reporter signal reduction – luminescence, H4-C neuroglioblastoma cells, dose response (AID 2458); assay type: functional, cell-based;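 note: H4 neuroglioblastoma cells stably carrying a luciferase reporter gene fusion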
[23] = inhibitors of SNCA 5'UTR-driven reporter translation, confirmation, H4 neuroglioma cells, luminescence (AID 1988); assay type: functional, cell-based
[24] = cytotoxicity toward DRD oncogenic fibroblasts, dose response, cell-based, non-viral oncogenic, luminescence (AID 1934); assay type: functional; conditions: Homo sapiens
[25] = Luminescence Cell-Based Dose Response HTS to Identify Activators of Luciferase Translation or Activity in H4-C Neuroglioblastoma Cells. [Related pubchem assays: 1829 (Project Summary), 1814 (Primary HTS)]; assay type: functional
[26] = Luminescence Cell-Based Dose Confirmation HTS to Identify Inhibitors of 5'UTR Stem-Loop Driven Alpha-Synuclein mRNA Translation in H4 Neuroglioblastoma Cells. [Related pubchem assays: 1827 (Project Summary), 1813 (Primary HTS)]; assay type: functional
[27] = Luminescence Cell-Based Dose Response HTS to Identify Inhibitors of 5'UTR Stem-Loop Driven Prion Protein mRNA Translation in H4 Neuroglioblastoma Cells. [Related pubchem assays: 1827 (Project Summary), 1813 (Primary HTS)]; assay type: functional
[28] = inhibitors of firefly luciferase expression or activity, dose response, H4 neuroglioma cells, luminescence (AID 1990); assay type: functional, cell-based
BJ [29] = assay: cytotoxicity toward Ras-transformed BJeLR fibroblasts, dose response, cell-based, alamar blue fluorescence, cherrypicked samples (AID 2631); assay type: functional; conditions: Homo sapiens;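 note: confirmatory dose-response assay in RAS-dependent BJ fibroblasts engineered with TERT, LT and ST, with cytotoxicity read by fluorescence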
[30] = Luminescence Cell-Based Dose Retest to Confirm Activators of 5'UTR Stem-Loop Driven Alpha-Synuclein mRNA Translation in H4 Neuroglioblastoma Cells. [Related pubchem assays (depositor defined):AID1813, AID1829]; assay type: functional
[31] = Luminescence Cell-Based Dose HTS Response to Identify Inhibitors of 5'UTR Stem-Loop Driven Prion Protein mRNA Translation in H4-C Neuroglioblastoma Cells. [Related pubchem assays (depositor defined):AID1814, AID1827]; assay type: functional
BJ [32] = assay: cytotoxicity toward BJ-TERT fibroblasts, dose response, cell-based, RAS-independent, luminescence (AID 1933); assay type: functional; conditions: Homo sapiens

T1 sequence (Q9Y2T6 whole entry): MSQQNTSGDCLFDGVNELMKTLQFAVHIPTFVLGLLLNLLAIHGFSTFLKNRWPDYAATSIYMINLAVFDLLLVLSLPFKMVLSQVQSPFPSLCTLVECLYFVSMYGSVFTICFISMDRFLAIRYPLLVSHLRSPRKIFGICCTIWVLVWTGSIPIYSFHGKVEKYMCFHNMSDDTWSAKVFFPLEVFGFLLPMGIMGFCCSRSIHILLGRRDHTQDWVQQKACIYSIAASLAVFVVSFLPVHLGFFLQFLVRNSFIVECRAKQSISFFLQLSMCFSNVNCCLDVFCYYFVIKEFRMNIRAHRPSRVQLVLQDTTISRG

COc1ccc(-c2cc(C(=O)Nc3ccc(S(=O)(=O)Nc4ncccn4)cc3)c3ccccc3n2)cc1
IC50 [1]: > 32 µM (inactive)
EC50 (Cannabinoid receptor 1 [2]): > 32 µM (inactive)
EC50 [3]: > 32 µM (inactive)
IC50 (Cannabinoid receptor 2 [4]): > 32 µM (inactive)
IC50 [5]: > 32 µM (inactive)
IC50 (Cannabinoid receptor 1 [6]): 24.5 µM (inactive)
EC50 (Cannabinoid receptor 2 [7]): > 32 µM (inactive)

CCC1CCc2sc(C(=O)Nc3cc(S(=O)(=O)N4CCOCC4)ccc3OC)cc2C1 (stereo unspecified)
EC50 (Cannabinoid receptor 2 [8]): > 32 µM (inactive)
IC50 (Cannabinoid receptor 1 [9]): > 32 µM (inactive)
IC50 (Cannabinoid receptor 2 [10]): > 32 µM (inactive)
IC50 [11]: > 32 µM (inactive)
EC50 [12]: 0.409 µM (active)
EC50 (Cannabinoid receptor 1 [13]): > 32 µM (inactive)
EC50 [14]: > 32 µM (inactive)

CCOC(=O)c1c(-c2ccccc2)oc2ccc(O)c(CN3CCOCC3)c12
Absolute IC50 (XBP1) (X-box-binding protein 1): < 10 µM
Absolute IC50 (CHOP) [15]: 10 µM

COC(=O)c1ccc(NC(=O)Nc2cccc(F)c2)cc1
EC50 (Mucolipin-3): > 29.9 µM (not active)
EC50 (Ion channel NompC): > 29.9 µM (inactive)

COc1cccc(N2CCN(C(=O)c3ccc(C[S+]([O-])c4ccc(C)cc4)o3)CC2)c1 (stereo unspecified)
EC50 (BJ [16]): 0.651 µM (active)
EC50 [17]: 0.186 µM (inconclusive)
AC50 [18]: > 30 µM (inactive)
EC50 (cells): 1.57 µM (active)
EC50 [19]: 0.703 µM (active)
EC50 [20]: 1.43 µM (active)
EC50 (BJ [21]): 0.479 µM (inconclusive)
EC50 [22]: 0.93 µM (active)
EC50 [23]: < 0.1 µM (active)
EC50 [24]: 0.637 µM (active)
EC50 [25]: 0.703 µM (inconclusive)
EC50 [26]: 36.4 µM (active)
EC50 [27]: 12.6 µM (active)
EC50 [28]: 5.76 µM (active)
EC50 (BJ [29]): < 0.104 µM (active)
EC50 [30]: 36.4 µM (inconclusive)
EC50 [31]: 0.186 µM (active)
EC50 (BJ [32]): 0.873 µM (active)
